Data on four sequences can be found in article PMC10148601 (Analytica Chimica Acta, 2023).

Entries after “also recorded” stand apart in the source; their conditions may differ. Bridge positions count the residues as written; N and C are the ends. Ends that are not written are not given here.

The target in test [1] is T1, SARS-CoV-2 NP (Severe acute respiratory syndrome coronavirus 2, UniProt P0DTC9).
Test [2] addresses T1, SARS-CoV-2 NP. The source holds these as a separate data set.
Test [3] concerns SARS-CoV-2 NP versus SARS-CoV NP, MERS-CoV NP, HCoV-OC43 NP, SARS-CoV-2 S1, S-RBD, MERS-CoV S1, VEGF165, HSA, AFP, CEA, BSA. The format is binding. As to conditions: n = 3.
For test [4], the target named is T1, SARS-CoV-2 NP. The source holds these as a separate data set.

For the sequence “ACGTKPTKFCGGGGGS (disulfide 2-10 (inferred)) [peptide probe N1]”, the “binding specificity and affinity in words” value at SARS-CoV-2 NP [1] was “binds to SARS-CoV-2 NP with good specificity and high affinity”.

As to “ACTPRSANYC (disulfide 2-10 (inferred)) [N4]”, the “Frequency among sequenced phage clones” value on SARS-CoV-2 NP [2] was 3/26. Besides, the specificity of binding result in test [3] is listed as “can bind to either MERS-CoV NP, SARS-CoV NP, or HCoV-OC43 NP; also recorded: limited selectivity”.

On to “ACLKTYWYNC (disulfide 2-10 (inferred)) [N5]”, for which, on SARS-CoV-2 NP [4], the “binding to SARS-CoV-2 NP (positive clone)” value is “have the ability to bind to SARS-CoV-2 NP with a significant difference compared to the control (P < 0.001)” and the “relative affinity for NP” value was “may have higher affinity for NP than the other clones”. On SARS-CoV-2 NP [2], the “Frequency among sequenced phage clones” value is reported as 2/26. Also, in test [3], the specificity of binding result was “can bind to either MERS-CoV NP, SARS-CoV NP, or HCoV-OC43 NP; also recorded: limited selectivity”.

For “ACGTKPTKFC (disulfide 2-10 (inferred)) [N1]”, at SARS-CoV-2 NP [4], the “binding to SARS-CoV-2 NP (positive clone)” value is recorded as “have the ability to bind to SARS-CoV-2 NP with a significant difference compared to the control (P < 0.001)” and the “relative affinity for NP” value is listed as “may have higher affinity for NP than the other clones”. Moreover, at SARS-CoV-2 NP [2], the “Frequency among sequenced phage clones” value is 6/26. Moreover, the specificity of binding result in test [3] is on record as “specifically recognizes SARS-CoV-2 NP; also recorded: binds specifically to SARS-CoV-2 NP; also recorded: has the best specificity”.
